Experimental data as given in PMC8185074, “Anchor extension: a structure-guided approach to design cyclic peptides targeting enzyme active sites” (Nature Communications, 2021).
Peptide text beside a SMILES is read from it.

What was measured:
[1] = target: T1, HDAC2 (Homo sapiens, UniProt Q92769); assay: HDAC2 inhibition, full IC50 measurement (Reaction Biology; fluorogenic p53 peptide RHKK(Ac)AMC); type: biochemical
T1 construct: purchased Reaction Biology Corporation (assay run by the CRO)
Protocol: (§1) The assay was performed using 50 μM fluorogenic peptide from p53 residues 379-382 [RHKK(Ac)AMC] in a base reaction buffer of 50 mM Tris-HCl at pH 8.0, 137 mM NaCl, 2.7 mM KCl, 1 mM MgCl2, and freshly added 1 mg/ml BSA and 1% DMSO. Peptides were first dissolved in DMSO and then added to the reaction mixture with the enzyme using acoustic technique, enough to reach the desired concentration for that assay point. Peptide concentrations were calculated based on mass of lyophilized peptide and its molecular weight. The substrate was then added and incubated for 1 hour at 30 °C in a sealed container. After the incubation, developer was added to stop the reaction and develop color. Kinetic measurements were then performed for 20 min with Envision with 5 min intervals (Ex/Em = 360/460 nm). The endpoint after plateau was taken for IC50 measurement.
(§2) In cases where duplicate measures are used, average data is reported in the main text or Supplementary Tables.

[2] = target: T2, HDAC6 (Homo sapiens, UniProt Q9UBN7); assay: HDAC6 inhibition, full IC50 measurement (Reaction Biology; fluorogenic p53 peptide RHKK(Ac)AMC); type: biochemical
T2 construct: purchased Reaction Biology Corporation (assay run by the CRO)
T2 sequence (Q9UBN7 1-1215): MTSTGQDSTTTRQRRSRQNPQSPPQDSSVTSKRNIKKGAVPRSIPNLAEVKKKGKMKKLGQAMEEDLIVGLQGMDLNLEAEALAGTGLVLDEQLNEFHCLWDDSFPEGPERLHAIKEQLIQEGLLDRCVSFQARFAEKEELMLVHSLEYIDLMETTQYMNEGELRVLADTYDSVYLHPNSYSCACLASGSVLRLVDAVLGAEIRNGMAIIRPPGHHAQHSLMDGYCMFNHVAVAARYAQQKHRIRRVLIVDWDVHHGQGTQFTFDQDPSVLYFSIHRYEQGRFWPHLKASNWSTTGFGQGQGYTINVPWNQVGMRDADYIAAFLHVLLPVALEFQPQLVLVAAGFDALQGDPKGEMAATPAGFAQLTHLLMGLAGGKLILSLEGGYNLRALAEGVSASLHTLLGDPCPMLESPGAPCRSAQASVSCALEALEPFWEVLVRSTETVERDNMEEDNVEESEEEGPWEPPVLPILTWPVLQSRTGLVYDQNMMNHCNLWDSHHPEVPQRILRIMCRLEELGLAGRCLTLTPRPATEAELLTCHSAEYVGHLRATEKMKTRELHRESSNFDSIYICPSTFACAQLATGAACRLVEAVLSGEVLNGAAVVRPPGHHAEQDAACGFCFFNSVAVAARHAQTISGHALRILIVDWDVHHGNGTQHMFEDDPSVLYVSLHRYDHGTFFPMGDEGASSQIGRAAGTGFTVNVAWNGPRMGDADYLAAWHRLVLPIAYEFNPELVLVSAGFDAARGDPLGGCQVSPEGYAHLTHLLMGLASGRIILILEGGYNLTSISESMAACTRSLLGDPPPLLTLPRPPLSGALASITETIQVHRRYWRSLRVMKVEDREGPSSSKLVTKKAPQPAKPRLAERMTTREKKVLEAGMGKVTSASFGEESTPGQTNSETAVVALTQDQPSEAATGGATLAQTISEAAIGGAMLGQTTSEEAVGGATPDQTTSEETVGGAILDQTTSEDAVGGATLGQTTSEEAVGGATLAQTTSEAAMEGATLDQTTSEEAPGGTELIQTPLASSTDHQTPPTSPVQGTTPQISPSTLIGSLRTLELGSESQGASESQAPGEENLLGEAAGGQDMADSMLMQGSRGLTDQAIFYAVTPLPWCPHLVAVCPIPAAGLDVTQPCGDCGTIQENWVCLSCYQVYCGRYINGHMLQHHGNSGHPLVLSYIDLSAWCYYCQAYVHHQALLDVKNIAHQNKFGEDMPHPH
Protocol: as §1, §2

T1 sequence (Q92769 whole entry): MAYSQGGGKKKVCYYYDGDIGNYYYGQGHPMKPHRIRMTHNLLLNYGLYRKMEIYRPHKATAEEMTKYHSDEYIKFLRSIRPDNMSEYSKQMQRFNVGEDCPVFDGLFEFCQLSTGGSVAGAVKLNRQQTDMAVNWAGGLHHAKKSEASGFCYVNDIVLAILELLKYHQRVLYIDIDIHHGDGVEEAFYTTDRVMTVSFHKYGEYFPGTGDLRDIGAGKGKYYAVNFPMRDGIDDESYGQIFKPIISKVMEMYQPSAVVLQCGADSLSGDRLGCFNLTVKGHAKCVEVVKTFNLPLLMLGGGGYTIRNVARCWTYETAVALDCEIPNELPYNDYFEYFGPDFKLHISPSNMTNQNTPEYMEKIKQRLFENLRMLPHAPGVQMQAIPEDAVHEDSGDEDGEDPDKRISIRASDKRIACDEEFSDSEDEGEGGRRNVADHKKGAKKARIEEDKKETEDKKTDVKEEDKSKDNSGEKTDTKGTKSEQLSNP

**Q.** For `CCCC[C@H]1NC(=O)[C@H](Cc2ccccc2)NC(=O)[C@H](CCCCCS)NC(=O)[C@@H](CO)NC(=O)[C@H](CC(=O)O)NC(=O)[C@@H](CO)NC(=O)[C@@H](C)NC(=O)[C@H](CCCCN)NC1=O` [des4.3.1.1, SHA-Phe-dNle-Lys-dAla-dSer-Asp-dSer] (HELM PEPTIDE1{D.[dS].[O=C([C@H](CCCCCS)N[*:1])[*:2]].F.[CCCC[C@@H](N[*:1])C(=O)[*:2]].K.[dA].[dS]}$PEPTIDE1,PEPTIDE1,1:R1-8:R2$$$V2.0), which “HDAC2 activity raw data (signal)” value ([1]; Conc. 1.00E-05 M, t1) is on record?
**A.** 1283086

**Q.** And the “HDAC2 activity raw data (signal)” value ([1]; Conc. 1.00E-05 M, t2)?
**A.** 1486401

**Q.** And the “HDAC2 activity raw data (signal)” value ([1]; Conc. 1.11E-06 M, t1)?
**A.** 1660902

**Q.** What about the “HDAC2 activity raw data (signal)” value ([1]; Conc. 1.11E-06 M, t2) of the same compound?
**A.** 1799195

**Q.** What about the “HDAC2 activity raw data (signal)” value ([1]; Conc. 1.23E-07 M, t1) of the same compound?
**A.** 1764651

**Q.** What about the “HDAC2 activity raw data (signal)” value ([1]; Conc. 1.23E-07 M, t2) of the same compound?
**A.** 1879798

**Q.** What about the “HDAC2 activity raw data (signal)” value ([1]; Conc. 1.37E-08 M, t1) of the same compound?
**A.** 1818162

**Q.** What about the “HDAC2 activity raw data (signal)” value ([1]; Conc. 1.37E-08 M, t2) of the same compound?
**A.** 1980324

**Q.** What about the “HDAC2 activity raw data (signal)” value ([1]; Conc. 1.52E-09 M, t1) of the same compound?
**A.** 1787655

**Q.** What about the “HDAC2 activity raw data (signal)” value ([1]; Conc. 1.52E-09 M, t2) of the same compound?
**A.** 1860263

**Q.** And the “HDAC2 activity raw data (signal)” value ([1]; Conc. 3.33E-06 M, t1)?
**A.** 1631295

**Q.** What about the “HDAC2 activity raw data (signal)” value ([1]; Conc. 3.33E-06 M, t2) of the same compound?
**A.** 1725891

**Q.** And the “HDAC2 activity raw data (signal)” value ([1]; Conc. 3.70E-07 M, t1)?
**A.** 1679365

**Q.** And the “HDAC2 activity raw data (signal)” value ([1]; Conc. 3.70E-07 M, t2)?
**A.** 1920676

**Q.** What about the “HDAC2 activity raw data (signal)” value ([1]; Conc. 4.12E-08 M, t1) of the same compound?
**A.** 1853084

**Q.** What about the “HDAC2 activity raw data (signal)” value ([1]; Conc. 4.12E-08 M, t2) of the same compound?
**A.** 2007168

**Q.** And the “HDAC2 activity raw data (signal)” value ([1]; Conc. 4.57E-09 M, t1)?
**A.** 1817065

**Q.** What about the “HDAC2 activity raw data (signal)” value ([1]; Conc. 4.57E-09 M, t2) of the same compound?
**A.** 1855125

**Q.** And the “HDAC2 activity raw data (signal)” value ([1]; Conc. 5.08E-10 M, t1)?
**A.** 1872757

**Q.** What about the “HDAC2 activity raw data (signal)” value ([1]; Conc. 5.08E-10 M, t2) of the same compound?
**A.** 1875796

**Q.** And the “6-Selectivity: fold potency for HDAC6 over HDAC2” value [2]?
**A.** 31.25 fold

**Q.** And the “HDAC6 activity raw data (signal)” value ([2]; Conc. 1.00E-05 M, t1)?
**A.** 121881

**Q.** And the “HDAC6 activity raw data (signal)” value ([2]; Conc. 1.00E-05 M, t2)?
**A.** 130414

**Q.** And the “HDAC6 activity raw data (signal)” value ([2]; Conc. 1.11E-06 M, t1)?
**A.** 580651

**Q.** And the “HDAC6 activity raw data (signal)” value ([2]; Conc. 1.11E-06 M, t2)?
**A.** 615445

**Q.** And the “HDAC6 activity raw data (signal)” value ([2]; Conc. 1.23E-07 M, t1)?
**A.** 1294999

**Q.** And the “HDAC6 activity raw data (signal)” value ([2]; Conc. 1.23E-07 M, t2)?
**A.** 1440536

**Q.** What about the “HDAC6 activity raw data (signal)” value ([2]; Conc. 1.37E-08 M, t1) of the same compound?
**A.** 1520011

**Q.** And the “HDAC6 activity raw data (signal)” value ([2]; Conc. 1.37E-08 M, t2)?
**A.** 1756812

**Q.** And the “HDAC6 activity raw data (signal)” value ([2]; Conc. 1.52E-09 M, t1)?
**A.** 1628369

**Q.** And the “HDAC6 activity raw data (signal)” value ([2]; Conc. 1.52E-09 M, t2)?
**A.** 1677368

**Q.** And the “HDAC6 activity raw data (signal)” value ([2]; Conc. 3.33E-06 M, t1)?
**A.** 268413

**Q.** What about the “HDAC6 activity raw data (signal)” value ([2]; Conc. 3.33E-06 M, t2) of the same compound?
**A.** 332099

**Q.** And the “HDAC6 activity raw data (signal)” value ([2]; Conc. 3.70E-07 M, t1)?
**A.** 971918

**Q.** What about the “HDAC6 activity raw data (signal)” value ([2]; Conc. 3.70E-07 M, t2) of the same compound?
**A.** 981413

**Q.** What about the “HDAC6 activity raw data (signal)” value ([2]; Conc. 4.12E-08 M, t1) of the same compound?
**A.** 1459081

**Q.** And the “HDAC6 activity raw data (signal)” value ([2]; Conc. 4.12E-08 M, t2)?
**A.** 1648611

**Q.** And the “HDAC6 activity raw data (signal)” value ([2]; Conc. 4.57E-09 M, t1)?
**A.** 1570327

**Q.** And the “HDAC6 activity raw data (signal)” value ([2]; Conc. 4.57E-09 M, t2)?
**A.** 1728944

**Q.** What about the “HDAC6 activity raw data (signal)” value ([2]; Conc. 5.08E-10 M, t1) of the same compound?
**A.** 1620579

**Q.** And the “HDAC6 activity raw data (signal)” value ([2]; Conc. 5.08E-10 M, t2)?
**A.** 1733616
